Assay results taken from patent US20220323379A1, “P62 LIGAND COMPOUND AND ER-PHAGY-PROMOTING USE THEREOF” (PROTECH, INC., priority 2019, published 2022).
“Also recorded” adds a separate entry of the source.

Tests used:
BiP, PDI, TRIM13 = assay: Immunoblotting of ER proteins under proteotoxic ER stress; type: cell-based, human; details: HeLa, MG132 2 μM 24 h, YOK1104 2.5 μM 4 h; FIG. 5F
Method: FIG. 5F illustrates the immunoblotting analysis results of HeLa cells treated with MG132 (2 μM, 24 h), YOK1104 (2.5 μM, 4 h), or both,
(§1) Cell pellets were washed with phosphate-buffered saline (PBS) and lysed in an SDS-based sample buffer (277.8 mM Tris-HCl, pH 6.8, 4.4% LDS, 44.4% (v/v) glycerol) with beta-mercaptoethanol. Alternatively, cell pellets or protein supernatants were lysed in a 5× Laemmli sample buffer (SDS-based sample buffer). Using SDS-PAGE, whole cell lysates were separated and transferred onto polyvinylidene difluoride membranes at 100 V for 2 h at 4° C. Subsequently, the membrane was blocked with 4% skim milk in PBS solution for 30 min at room temperature and incubated overnight with primary antibodies (see Reference Example 4), followed by incubation with host-specific HRP-conjugated secondary antibodies (Jackson laboratory) (1:10000 dilution). For signal detection, a mixture of ECL solution (Thermo Fisher Scientific) was applied onto the membrane and captured using X-ray films.

TRIM13 [1] = assay: In vivo oligomerization assay of TRIM13-flag (non-reducing SDS-PAGE); type: cell-based, human; details: HEK293T, MG132 2 μM 24 h, YOK1104 2.5 μM 4 h; FIG. 5L
Method: FIG. 4H illustrates the in vivo oligomerization assay results of TRIM13-flag in HEK293T cells treated with HCQ (10 μM, 24 h), tannic acid (30 μM, 24 h), or both,
FIG. 5L illustrates the In vivo oligomerization assay results of TRIM13-flag in HEK293T cells treated with MG132 (2 μM, 24 h) and with or without YOK1104 (2.5 μM, 4 h).
HEK293T cells were transfected with TRIM13-flag using Lipofectamine 2000 and treated with hydroxychloroquine (Sigma) for 24 h. To lyse the cells, the cells were subjected to a cycle of freezing/thawing and centrifuged at 13,000 g for 10 min after 30 min incubation on ice for supernatant collection. Protein concentration was measured using the Pierce BCA Protein Assay Kit (Thermo Fisher Scientific). Next, a non-reducing 4×LDS sample buffer was added to the sample lysate and followed by boiling at 100° C. for 10 min. The samples were loaded on a 3% stacking and 8% separating SDS-PAGE. Immunoblotting assays were performed using an anti-Flag antibody (Sigma) to visualize the oligomeric complexes of TRIM13.

HEK293T cells = assay: Transmission electron microscopy of treated cells; type: cell-based, human; details: 2.5 μM, 6 h vs DMSO, FIG. 5E
Method: FIG. 5E is a transmission electron microscopy image of HEK293T cells treated with YOK1104 (2.5 μM, 6 h) or DMSO (control), where arrows indicate autolysosomes and asterisks indicate ER fragments inside autolysosomes (scale bars, 500 nm (1st & 2nd column), 200 nm (3rd column)),
For conventional transmission electron microscopy, HEK293T cells were treated with 2.5 μM YOK1104 for 6 h, scraped from culture dish and pelleted by centrifugation. The pellets were resuspended in 2.5% glutaraldeyhyde in 0.1 M sodium cacodylate buffer (pH 7.4) (Electron Microscopy Sciences) for overnight at 4° C. The fixative was replaced by a cacodylate buffer for the last 6 h, after which the cells were embedded in Epon resin. Subsequently, the cells were cut into 55-nm sections and stained with uranyl acetate and lead citrate using the Reichert Ultracut S Ultramicrotome (Leica Microsystems) and FEI Vitrobot Mark IV (Thermo Scientific), respectively. The cell sections were observed using the 200 kV transmission electron microscope FEI Tecnai G2-F20 (Thermo Scientific).

TRIM13 [2] = assay: Autophagy flux assay of TRIM13-flag with bafilomycin A1; type: cell-based, human; details: HeLa TRIM13-flag, 2.5 μM 4 h, with or without bafilomycin A1 200 nM 6 h; FIG. 11M
Method: FIG. 11M illustrates the Western blotting results of HeLa cells transfected with TRIM13-flag or negative control empty vector (EV), treated with YOK1104 (2.5 μM, 4 h), and treated with or without bafilomycin A1 (200 nM, 6 h),
as §1

TRIM13-p62 complex = molecular target: T1, TRIM13-p62 complex (Homo sapiens, UniProt Q13501); assay: Co-IP with autophagy flux analysis using TRIM13 pulldown; type: cell-based; details: HEK293T p62-myc + TRIM13-flag, YOK1104 2.5 μM 4 h, HCQ 10 μM 24 h; FIG. 5K
T1 construct: PCR amplification of a full-length human p62 cDNA fragment; expressed in transfected cells; host or cells: HEK293T
Method: FIG. 4I illustrates the Co-IP assay results in HEK293T cells treated with HCQ (10 μM, 24 h), tannic acid (30 μM, 24 h), or both, and co-transfected (24 h) with p62-myc and TRIM13-flag,
FIG. 5K illustrates the Co-IP assay results in HEK293T cells co-transfected with p62-myc and TRIM13-flag (24 h) or transfected with negative control empty vector (EV) and treated with HCQ (10 μM, 24 h), YOK1104 (2.5 μM, 4 h), or both, and
To test protein interaction, co-immunoprecipitation assays were performed. For exogenous co-IP, HEK293T cells were transfected with recombinant p62, BiP, TRIM13, reticulophagy regulator 1 (FAM134B), reticulon 3 (RTN3) or ATZ (Z variant E342K) using Lipofectamine 2000. The cell pellets were scraped and pelleted by centrifugation, resuspended and lysed in an immunoprecipitation buffer (IP buffer) [50 mM Tris-HCl pH 7.5, 150 mM NaCl, 0.5% Triton X-100, 1 mM EDTA, 1 mM phenylmethylsulfonyl fluoride (PMSF; Roche) and protease inhibitor cocktail (Sigma)] on a rotor at 4° C. for 30 min. Next, the supernatant and remaining pellets were passed through a 26-gauge 1 mL syringe 15 times and centrifuged at 13,000 g at 4° C. and collected for the supernatant, to which normal mouse IgG (Santa Cruz) and Protein A/G-Plus agarose beads (Santa Cruz) were added to preclear the lysate on a rotor at 4° C. overnight. The cell lysate was then incubated with M2 FLAG-affinity Gel agarose beads (Sigma) on a rotor at 4° C. for 3 h. The gel beads were washed four times with IP buffer, resuspended in 2× Laemmli Sample Buffer, separated by SDS-PAGE and analyzed by immunoblotting with specified antibodies.

HeLa cells [3] = assay: Western blotting of ER stress and apoptosis in tannic acid-treated cells; type: cell-based, human; details: tannic acid 30 μM 24 h, YTK1105 5 μM 9 h, HCQ 10 μM 24 h, FIG. 5G
Method: FIG. 5G illustrates the Western blotting analysis results of HeLa cells treated with HCQ (10 μM, 24 h), YTK1105 (5 μM, 9 h), or both in the presence or absence of tannic acid (30 μM, 24 h),
as §1

HeLa cells [4] = assay: ER expansion visualization by KDEL immunostaining; type: cell-based, human; details: tannic acid 30 μM 24 h with YTK1105 2.5 μM 5 h or rapamycin 2 μM 18 h, FIGS. 5H, 5I
Method: FIG. 5H illustrates the immunostaining results of KDEL signals in HeLa cells treated with or without tannic acid (30 μM, 24 h) and with YTK1105 (2.5 μM, 5 h) or rapamycin (2 μM, 18 h) (scale bar, 10 μm),
To observe cellular localization of proteins, cells were cultured on cover slips coated with poly-L-lysine (Sigma). The cells were fixed with 4% paraformaldehyde in PBS (pH 7.4) for 15 min at room temperature and washed three times with PBS for 5 min. The cells were permeabilized with 0.5% Triton X-100 in PBS solution for 15 min and washed three times with PBS for 5 min. The cells were blocked with 2% BSA in PBS solution for 1 h at room temperature. After blocking, the cells were incubated overnight at 4° C. with a primary antibody diluted in 2% BSA/PBS solution. […] Confocal images were taken by a laser scanning confocal microscope 510 Meta (Zeiss) and analyzed by Zeiss LSM Image Browser (ver. 4.2.0.121).
Using confocal microscopy of cells analyzed by immunocytochemistry, ER expansion was visualized by considered when KDEL- or calnexin-labelled ER occupied more than 80% of cell area. Furthermore, the ER area was calculated by ImageJ (NIH, Bethesda, v1.52) and the background threshold was manually defined and set for all images. The ER area was calculated and marked from the total cell area as a fraction after borders of each cell were set.

T1 sequence (Q13501 whole entry, the tested form may be a part): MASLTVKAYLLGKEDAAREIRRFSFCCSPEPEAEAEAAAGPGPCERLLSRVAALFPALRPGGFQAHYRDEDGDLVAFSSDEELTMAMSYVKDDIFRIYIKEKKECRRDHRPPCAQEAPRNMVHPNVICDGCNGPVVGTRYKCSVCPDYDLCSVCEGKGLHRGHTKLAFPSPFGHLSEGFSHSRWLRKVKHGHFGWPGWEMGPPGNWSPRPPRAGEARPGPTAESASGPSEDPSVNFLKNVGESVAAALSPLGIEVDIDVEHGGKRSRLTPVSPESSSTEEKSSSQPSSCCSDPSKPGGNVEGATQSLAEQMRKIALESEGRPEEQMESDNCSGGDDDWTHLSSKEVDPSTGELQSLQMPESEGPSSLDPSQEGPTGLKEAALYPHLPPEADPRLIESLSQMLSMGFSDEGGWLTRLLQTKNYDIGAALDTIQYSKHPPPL
T1 sequence (O60858 whole entry partner, the tested form may be a part): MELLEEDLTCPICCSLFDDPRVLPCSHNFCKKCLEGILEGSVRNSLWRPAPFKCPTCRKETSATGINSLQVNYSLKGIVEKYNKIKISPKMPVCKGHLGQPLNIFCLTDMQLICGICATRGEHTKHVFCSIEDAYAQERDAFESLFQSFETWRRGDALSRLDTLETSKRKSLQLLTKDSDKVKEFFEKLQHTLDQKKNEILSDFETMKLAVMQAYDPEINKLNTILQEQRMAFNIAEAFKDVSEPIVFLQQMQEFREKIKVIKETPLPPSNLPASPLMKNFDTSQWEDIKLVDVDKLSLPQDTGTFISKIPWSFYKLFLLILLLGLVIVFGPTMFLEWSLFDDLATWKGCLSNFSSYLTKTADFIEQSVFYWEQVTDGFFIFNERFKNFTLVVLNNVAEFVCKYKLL

SMILES	degradation of BiP, PDI and TRIM13 following up-modulation by proteotoxic ER stress (BiP, PDI, TRIM13)	degradation of oligomeric vs monomeric species of TRIM13 (TRIM13 [1])	delivery of ER compartments to autolysosomes; autophagosomes and autolysosomes by transmission electron microscopy (HEK293T cells)	autophagic degradation of TRIM13 (TRIM13 [2])	autophagic degradation of the TRIM13-p62 complex (TRIM13-p62 complex)	rescue from ER stress and apoptosis (HeLa cells [3])	ER morphology (swelling), KDEL signals (HeLa cells [4])
CC(C)NC[C@@H](O)COc1ccc(OCc2ccccc2)c(OCc2ccccc2)c1 [YOK1104, (R)-1-(3,4-bis(benzyloxy)phenoxy)-3-(isopropylamino)propan-2-ol]	readily facilitated the degradation of BiP and PDI as well as TRIM13	selectively induced the degradation of oligomeric species but not that of monomeric species of TRIM13	readily exhibited an abundance of autophagosomes and autolysosomes; also recorded: displayed the accumulation of ER fragments within their interior	drove TRIM13 to autophagic degradation	enhanced autophagic degradation of the TRIM13-p62 complex	–	–
Cl.OCCNCc1ccc(OCc2ccccc2)c(OCc2ccccc2)c1 [YTK1105, 2-((3,4-bis(benzyloxy)benzyl)amino)ethan-1-ol hydrochloride]	–	–	–	–	–	rescued tannic acid-treated cells from ER stress and apoptosis in an autophagy-dependent manner	readily restored
